EP4603105A1, “PHARMACEUTICAL COMPOSITION CONTAINING CYCLIC COMPOUND HAVING SELECTIVE KRAS INHIBITORY EFFECT AGAINST HRAS AND NRAS” (CHUGAI SEIYAKU KABUSHIKI KAISHA, priority 2022, dated 2024)

What was measured:
[1] = molecular target: GDP-bound NRAS wild-type protein (Homo sapiens, UniProt P01111); assay: Binding to NRAS by surface plasmon resonance (SPR), KD and KD ratio to KRAS; details: ratio of KD value for GDP-bound NRAS wild-type protein to KD value for KRAS (SPR)
How it was run: (§1)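 SPR, 30°C: Avi-biotin RAS·GDP captured via Biotin CAPture (~100–300 RU); running buffer HBS pH 7.4, 1 mM DTT, 10 mM MgCl2, 0.01% Tween 20, 10 µM GDP, 4% DMSO. Single-cycle kinetics, 100 µL/min, 75 s injections; 1:1 model → KD.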

[2] = molecular target: HRAS wild-type protein (Homo sapiens, UniProt P01112); assay: Binding to HRAS by surface plasmon resonance (SPR), KD and KD ratio to KRAS; details: ratio of KD value for HRAS wild-type protein to KD value for KRAS (SPR)
HRAS wild-type protein, sequence (P01112 whole entry): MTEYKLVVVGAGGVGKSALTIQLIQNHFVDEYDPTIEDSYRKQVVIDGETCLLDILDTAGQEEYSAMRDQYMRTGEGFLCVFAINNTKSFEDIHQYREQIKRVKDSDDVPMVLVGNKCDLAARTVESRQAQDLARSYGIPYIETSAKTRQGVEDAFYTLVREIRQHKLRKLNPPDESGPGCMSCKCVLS
How it was run: as §1

[3] = system: human lung cancer strain NCI-H441; assay type: cell-based
How it was run: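 Proliferation was scored by […] measured after the reagent was added to cultures kept at 37°C in 5% carbon dioxide.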

GDP-bound NRAS wild-type protein, sequence (P01111 whole entry): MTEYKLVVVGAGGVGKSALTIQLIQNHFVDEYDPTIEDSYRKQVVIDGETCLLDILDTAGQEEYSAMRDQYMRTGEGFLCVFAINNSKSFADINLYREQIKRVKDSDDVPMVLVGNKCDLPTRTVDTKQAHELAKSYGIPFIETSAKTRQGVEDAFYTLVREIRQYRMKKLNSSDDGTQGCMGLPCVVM

Row | Compound | IC50 [3] [nM] | NRAS /KRAS [1] | HRAS /KRAS [2]
1 | CCC[C@H]1C(=O)N[C@@H]([C@@H](C)CC)C(=O)N(C)CC(=O)N(C)[C@H]2C/C=C\CCN(C2=O)[C@@H](Cc2ccc(C(F)(F)F)cc2)C(=O)N(C)CC(=O)N[C@@H](CCc2cc(F)c(Cl)c(F)c2)C(=O)N2C[C@H](OCC)C[C@H]2C(=O)NC2(CC(C)(C)C2)C(=O)N(C)[C@@H](C2CCCC2)C(=O)N(C)[C@H](C(=O)N(C)C)CC(=O)N1C [PP1758] | 6 | AA (a compound having 20 or more is denoted as AA) | A (a compound having 10 or more and less than 20 is denoted as A)
2 | CCO[C@@H]1C[C@H]2C(=O)NC3(CC(C)(C)C3)C(=O)N(C)[C@@H](C3CCCC3)C(=O)N(C)[C@H](C(=O)N(C)C)CC(=O)N(C)[C@@H](CC3CC3)C(=O)N[C@@H]([C@@H](C)CC)C(=O)N(C)CC(=O)N(C)[C@H]3C/C=C\CCN(C3=O)[C@@H](Cc3ccc(C(F)(F)F)cc3)C(=O)N(C)CC(=O)N[C@@H](CCc3cc(F)c(Cl)c(F)c3)C(=O)N2C1 [PP1759] | 6.2 | A (a compound having 10 or more and less than 20 is denoted as A) | A (a compound having 10 or more and less than 20 is denoted as A)
3 | CCO[C@@H]1C[C@H]2C(=O)NC3(CC(C)(C)C3)C(=O)N(C)[C@@H](C3CCCC3)C(=O)N(C)[C@H](C(=O)N(C)C)CC(=O)N(C)[C@@H](CC(C)C)C(=O)N[C@@H]([C@@H](C)CC)C(=O)N(C)CC(=O)N(C)[C@H]3C/C=C\CCN(C3=O)[C@@H](Cc3ccc(C(F)(F)F)cc3)C(=O)N(C)CC(=O)N[C@@H](CCc3cc(F)c(Cl)c(F)c3)C(=O)N2C1 [PP1761] | 5.2 | A (a compound having 10 or more and less than 20 is denoted as A) | A (a compound having 10 or more and less than 20 is denoted as A)
4 | CCO[C@@H]1C[C@H]2C(=O)NC3(CC(C)(C)C3)C(=O)N(C)[C@@H](C3CCCC3)C(=O)N(C)[C@H](C(=O)N(C)C)CC(=O)N(C)[C@@H](CC3CCC3)C(=O)N[C@@H]([C@@H](C)CC)C(=O)N(C)CC(=O)N(C)[C@H]3C/C=C\CCN(C3=O)[C@@H](Cc3ccc(C(F)(F)F)cc3)C(=O)N(C)CC(=O)N[C@@H](CCc3cc(F)c(Cl)c(F)c3)C(=O)N2C1 [PP1762] | 8.4 | A (a compound having 10 or more and less than 20 is denoted as A) | A (a compound having 10 or more and less than 20 is denoted as A)
5 | CCCN(C)C(=O)[C@@H]1CC(=O)N(C)[C@@H](COC)C(=O)N[C@@H]([C@@H](C)CC)C(=O)N(C)CC(=O)N(C)[C@H]2C/C=C\CCN(C2=O)[C@@H](Cc2ccc(C(F)(F)F)cc2)C(=O)N(C)CC(=O)N[C@@H](CCc2cc(F)c(Cl)c(F)c2)C(=O)N2C[C@H](OCC)C[C@H]2C(=O)NC2(CC(C)(C)C2)C(=O)N(C)[C@@H](C2CCCC2)C(=O)N1C [PP1763] | 13.3 | A (a compound having 10 or more and less than 20 is denoted as A) | A (a compound having 10 or more and less than 20 is denoted as A)
6 | CCCOC[C@H]1C(=O)N[C@@H]([C@@H](C)CC)C(=O)N(C)CC(=O)N(C)[C@H]2C/C=C\CCN(C2=O)[C@@H](Cc2ccc(C(F)(F)F)cc2)C(=O)N(C)CC(=O)N[C@@H](CCc2cc(F)c(Cl)c(F)c2)C(=O)N2C[C@H](OCC)C[C@H]2C(=O)NC2(CC(C)(C)C2)C(=O)N(C)[C@@H](C2CCCC2)C(=O)N(C)[C@H](C(=O)N(C)C)CC(=O)N1C [PP1764] | 11.1 | AA (a compound having 20 or more is denoted as AA) | A (a compound having 10 or more and less than 20 is denoted as A)
7 | CCO[C@@H]1C[C@H]2C(=O)NC3(CCC3)C(=O)N(C)[C@@H](C3CCCC3)C(=O)N(C)[C@H](C(=O)N(C)C)CC(=O)N(CC)[C@@H](CC(C)C)C(=O)N[C@@H]([C@@H](C)CC)C(=O)N(C)CC(=O)N(C)[C@H]3C/C=C\CCN(C3=O)[C@@H](Cc3ccc(C(F)(F)F)cc3)C(=O)N(C)CC(=O)N[C@@H](CCc3cc(F)c(C(F)(F)F)c(F)c3)C(=O)N2C1 [PP1765] | 16.8 | A (a compound having 10 or more and less than 20 is denoted as A) | A (a compound having 10 or more and less than 20 is denoted as A)
8 | CCC[C@H]1C(=O)N[C@@H]([C@@H](C)CC)C(=O)N(CCC)CC(=O)N(C)[C@H]2C/C=C\CCN(C2=O)[C@@H](Cc2ccc(C(F)(F)F)cc2)C(=O)N(C)CC(=O)N[C@@H](CCc2cc(F)c(C(F)(F)F)c(F)c2)C(=O)N2C[C@H](OCC)C[C@H]2C(=O)NC2(CCC2)C(=O)N(C)[C@@H](C2CCCC2)C(=O)N(C)[C@H](C(=O)N(C)C)CC(=O)N1C [PP1767] | 17.9 | A (a compound having 10 or more and less than 20 is denoted as A) | B (a compound having 3 or more and less than 10 is denoted as B)

Now from value to compound, other results behind:

Row | IC50 [3] [nM] | Compound | NRAS /KRAS [1] | HRAS /KRAS [2]
9 | 4.9 | CCO[C@@H]1C[C@H]2C(=O)NC3(CC(C)(C)C3)C(=O)N(C)[C@@H](C3CCCC3)C(=O)N(CC)[C@H](C(=O)N(C)C)CC(=O)N(C)[C@@H](CC)C(=O)N[C@@H]([C@@H](C)CC)C(=O)N(C)CC(=O)N(C)[C@H]3C/C=C\CCN(C3=O)[C@@H](Cc3ccc(C(F)(F)F)cc3)C(=O)N(C)CC(=O)N[C@@H](CCc3cc(F)c(C(F)(F)F)c(F)c3)C(=O)N2C1 [PP1768] | A (a compound having 10 or more and less than 20 is denoted as A) | A (a compound having 10 or more and less than 20 is denoted as A)
10 | 12.9 | CCC[C@H]1C(=O)N[C@@H]([C@@H](C)CC)C(=O)N(C)CC(=O)N(C)[C@H]2C/C=C\CCN(C2=O)[C@@H](Cc2ccc(C(F)(F)F)cc2)C(=O)N(C)CC(=O)N[C@@H](CCc2cc(F)c(C(F)(F)F)c(F)c2)C(=O)N2C[C@H](OCC)C[C@H]2C(=O)NC2(CCC2)C(=O)N(C)[C@@H](C2CCCC2)C(=O)N(CCC)[C@H](C(=O)N(C)C)CC(=O)N1C [PP1769] | A (a compound having 10 or more and less than 20 is denoted as A) | A (a compound having 10 or more and less than 20 is denoted as A)
11 | 6.6 | CCO[C@@H]1C[C@H]2C(=O)NC3(CC(C)(C)C3)C(=O)N(C)[C@@H](C3CCCC3)C(=O)N(C)[C@H](C(=O)N(C)CC)CC(=O)N(C)[C@@H](CC(C)C)C(=O)N[C@@H]([C@@H](C)CC)C(=O)NCC(=O)N(C)[C@H]3C/C=C\CCN(C3=O)[C@@H](Cc3ccc(C(F)(F)F)cc3)C(=O)N(C)CC(=O)N[C@@H](CCc3cc(F)c(C(F)(F)F)c(F)c3)C(=O)N2C1 [PP1771] | A (a compound having 10 or more and less than 20 is denoted as A) | A (a compound having 10 or more and less than 20 is denoted as A)
12 | 13.4 | CCO[C@@H]1C[C@H]2C(=O)NC3(CC(C)(C)C3)C(=O)N(C)[C@@H](C3CCCC3)C(=O)N(C)[C@H](C(=O)N(C)C)CC(=O)N(CC)[C@@H](CC(C)C)C(=O)N[C@@H]([C@@H](C)CC)C(=O)NCC(=O)N(C)[C@H]3C/C=C\CCN(C3=O)[C@@H](Cc3ccc(C(F)(F)F)cc3)C(=O)N(C)CC(=O)N[C@@H](CCc3cc(F)c(C(F)(F)F)c(F)c3)C(=O)N2C1 [PP1772] | B (a compound having 3 or more and less than 10 is denoted as B) | B (a compound having 3 or more and less than 10 is denoted as B)
13 | 39.9 | CCO[C@@H]1C[C@H]2C(=O)NC3(CC(C)(C)C3)C(=O)N(C)[C@@H](C3CCCC3)C(=O)N(CC)[C@H](C(=O)N(C)C)CC(=O)N(C)[C@@H](CC(C)C)C(=O)N[C@@H]([C@@H](C)CC)C(=O)NCC(=O)N(C)[C@H]3C/C=C\CCN(C3=O)[C@@H](Cc3ccc(C(F)(F)F)cc3)C(=O)N(C)CC(=O)N[C@@H](CCc3cc(F)c(C(F)(F)F)c(F)c3)C(=O)N2C1 [PP1773] | A (a compound having 10 or more and less than 20 is denoted as A) | A (a compound having 10 or more and less than 20 is denoted as A)
14 | 98.7 | CC[C@H](C)[C@@H]1NC(=O)[C@H](CC(C)C)N(C)C(=O)C[C@@H](C(=O)N(C)C)N(C)C(=O)[C@H](C2CCCC2)N(C)C(=O)C2(CC(C)(C)C2)NC(=O)CN(C)C(=O)[C@H](CCc2cc(F)c(C(F)(F)F)c(F)c2)NC(=O)CN(C)C(=O)[C@H](Cc2ccc(C(F)(F)F)cc2)N2CC/C=C\C[C@@H](C2=O)N(C)C(=O)CN(C)C1=O [PP1776] | A (a compound having 10 or more and less than 20 is denoted as A) | A (a compound having 10 or more and less than 20 is denoted as A)
15 | 79.3 | CCC[C@H]1C(=O)N[C@@H]([C@@H](C)CC)C(=O)N(C)CC(=O)N(C)[C@H]2C/C=C\CCN(C2=O)[C@@H](Cc2ccc(C(F)(F)F)cc2)C(=O)N(C)CC(=O)N[C@@H](CCc2cc(F)c(C(F)(F)F)c(F)c2)C(=O)N(CC)CC(=O)NC2(CC(C)(C)C2)C(=O)N(C)[C@@H](C2CCCC2)C(=O)N(C)[C@H](C(=O)N(C)C)CC(=O)N1C [PP1777] | A (a compound having 10 or more and less than 20 is denoted as A) | B (a compound having 3 or more and less than 10 is denoted as B)
16 | 5.4 | CCO[C@@H]1C[C@H]2C(=O)N(C)C3(CCC3)C(=O)N(C)[C@@H](C3CCCC3)C(=O)N(C)[C@H](C(=O)N(C)C)CC(=O)N(C)[C@@H](CC)C(=O)N[C@@H]([C@@H](C)CC)C(=O)N(C)CC(=O)N(C)[C@H]3C/C=C\CCN(C3=O)[C@@H](Cc3ccc(C(F)(F)F)cc3)C(=O)N(C)CC(=O)N[C@@H](CCc3cc(F)c(C(F)(F)F)c(F)c3)C(=O)N2C1 [PP1779] | A (a compound having 10 or more and less than 20 is denoted as A) | B (a compound having 3 or more and less than 10 is denoted as B)
